Reference: patent publication US20110110916A1, “METHODS FOR TREATING AND/OR PREVENTING CARDIOMYOPATHIES BY ERK OR JNK INHIBITION” (priority 2008, published 2011)
Where two headings read alike, the source gives them in different places.

How the values were obtained:
Lmna^H222P/H222P mice [1] = assay: Echocardiography at 20 weeks of age, second-generation MEK1/2 inhibitors from 16 to 20 weeks; type: in vivo, mouse; details: 1 mg/kg/day, 5 days a week from 16 to 20 weeks
Experimental: The compounds were administered at a dose of 1 mg/kg/day, 5 days a week to Lmna^H222P/H222P mice, as previously described. Treatment was initiated at 16 weeks of age and continued until the mice were 20 weeks of age. At 20 weeks of age, the mice were analyzed by echocardiography and then sacrificed for biochemical studies. Untreated male Lmna^+/+ and Lmna^H222P/H222P mice were similarly analyzed for comparisons.

[2] = tested on: hearts from Lmna^H222P/H222P mice; assay: Quantification of myocardial fibrotic area (Gomori's trichrome); type: in vivo, mouse; details: 20 weeks of age; 1 mg/kg/day from 16 to 20 weeks; DMSO 20.93%±2.45%
From the text: Later-stage cardiomyopathy caused by LMNA mutations is characterized by myocardial fibrosis. […] We quantified the myocardial fibrotic area of each animal by determining the ratio of fibrotic tissue (blue stained with Gomori's trichrome) to the total tissue area in each micrograph (FIG. 8B). Hearts from DMSO-treated Lmna^H222P/H222P mice had 20.93%±2.45% fibrotic tissue per total surface examined (FIG. 8B).
Mice were sacrificed at 20 weeks of age, and freshly removed hearts were fixed in 4% formaldehyde for 48 hours, embedded in paraffin, sectioned at 5 μm and stained with hematoxylin, eosin and Gomori's trichrome and Syrius Red. Representative stained sections were photographed using a Microphot SA (Nikon) light microscope attached to a Spot RT Slide camera (Diagnostic Instruments) with a 10× objective. Images were processed using Adobe Photoshop CS (Adobe Systems).
Later-stage cardiomyopathy caused by LMNA mutations is characterized by myocardial fibrosis (21,22). […] We quantified the myocardial fibrotic area of each animal by determining the ratio of fibrotic tissue (blue stained with Gomori's trichrome) to the total tissue area in each micrograph (FIG. 34C). Hearts from DMSO-treated Lmna^H222P/H222P mice had 15.01±0.9% fibrotic tissue per total surface examined (FIG. 34D).

ERK1/2 = assay: Immunoblot of phosphorylated ERK1/2 versus total ERK1/2 in hearts of treated mice; type: in vivo, mouse; details: 1 mg/kg/day from 16 to 20 weeks of age
Experimental: Hearts were excised from mice at 16-weeks of age and were homogenized in RIPA extraction buffer (Cell Signalling) containing protease inhibitors (25 […]). Protein samples were subjected to SDS-PAGE, transferred to nitrocellulose membranes and blotted with primary antibodies against ERK1/2 (Santa-Cruz), phosphorylated ERK1/2 (Cell Signaling), JNK (Santa-Cruz), natriuretic peptide precursor A (Santa-Cruz), phosphorylated JNK (Cell Signaling), and Gapdh (Ambion). Secondary antibodies were HRP-conjugated (Amersham). Recognized proteins were visualized by enhanced chemiluminescence (ECL, Amersham). The signal generated using an antibody against Gapdh was used as internal controls to normalize the amounts of protein between immunoblots.
We assessed the efficacy of the chemical entities in inhibiting their targets in the heart by immunoblot using anti-total ERK1/2 (Santa Cruz) and anti-pERK1/2 (Cell Signaling) antibodies.
Proteins were loaded on 10% SDS gels and electrotransferred on a […] pore size nitrocellulose membrane (Invitrogen). We used antibodies directed against phosphorylated ERK1/2 (Cell Signaling, 1:1,000), total ERK1/2 (Santa Cruz, 1:2,000), phosphorylated JNK (Cell Signaling, 1:1,000) and total JNK (Santa Cruz, 1:200). The secondary antibodies were coupled to horseradish-peroxydase (Amersham). Recognized proteins were visualized by enhanced chemiluminescence (SuperSignal® West Pico chemiluminescent substrate, Thermo Scientific).

[3] = tested on: hearts from Lmna^H222P/H222P mice; assay: Quantitative real-time RT-PCR of mRNAs in hearts of treated mice; type: in vivo, mouse; details: for expression of Colla1 and Colla2: 20 weeks of age, 1 mg/kg/day from 16 to 20 weeks
From the text: Total RNA was extracted using the Rneasy isolation kit (Qiagen) as previously described (96). cDNA was synthesized as previously described (96) using Omniscript Reverse Transcriptase (Qiagen) on total cellular RNA. For each replicate in each experiment, RNA from tissue samples of different animals was used. Primers were designed that correspond to mouse RNA sequences using Primer3 (http://frodo.wi.mit.edu/cgi-biniprimer3/primer3_www.cgi). The real-time RT-PCR reaction contained iQ SYBR green super mix (Bio-Rad), 200 nM of each primer and 0.2 μl of template in a 25 μl reaction volume. Amplification was carried out using appropriate primers and the MyiQ Single-Color Real-Time PCR Detection System (Bio-Rad) with an initial denaturation at 95° C. for 2 min followed by 50 cycles at 95° C. for 30 s and 62° C. for 30 s. Relative levels of mRNA expression were calculated using the CT method (67). Individual expression values were normalized by comparison with Gapdh mRNA.
Real-time reverse transcription-PCR (RT-PCR) was used to quantify tissue RNA levels. Total RNA was extracted from cardiac ventricles of mice using the Rneasy isolation kit (Qiagen) as previously described. cDNA was synthesized using Superscript first strand synthesis system according to the manufacturer's instructions (Invitrogen) on total RNA. For each replicate in each experiment, RNA from tissue samples of different animals was used. Primers were designed correspond to mouse RNA sequences using Primer3 (http://frodo.wi.mit.edu/cgi-bin/primer3/primer3_www.cgi) for Nppa (forward 5′-[…]-3′ [SEQ ID NO: 4], reverse 5′-[…]-3′ [SEQ ID NO: 5]), Nppb (forward 5′-[…]-3′ [SEQ ID NO: 6], reverse 5′-[…]-3′ [SEQ ID NO: 7]), Mlc-2a (forward 5′-[…]-3′ [SEQ ID NO: 8], reverse 5′-[…]-3′ [SEQ ID NO: 9]), Colla1 (forward 5′-[…]-3′ [SEQ ID NO: 10], reverse 5′-[…]-3′ [SEQ ID NO: 11]), Colla2 (forward 5′-[…]-3′ [SEQ ID NO: 12], reverse 5′-[…]-3′ [SEQ ID NO: 13]) and Fn1 (forward 5′-[…]-3′ [SEQ ID NO: 14], reverse 5′-[…]-3′ [SEQ ID NO: 15]). The real-time RT-PCR reaction contained iQ SYBR green super mix (Bio-Rad), 200 nM of each primer, and 0.2 μl of template in a 25 μl reaction volume. Amplification was carried out using the MyiQ Single-Color Real-Time PCR Detection System (Bio-Rad) with an initial denaturation at 95° C. for […] followed by 50 cycles at 95° C. for 30 s and 62° C. for 30 s. Relative levels of mRNA expression were calculated using the ΔΔCT method (2). Individual expression values were normalized by comparison with Gapdh mRNA (forward 5′-[…]-3′ [SEQ ID NO: 16], reverse 5′-[…]-3′ [SEQ ID NO: 17]).

[4] = tested on: atrial natriuretic factor; assay: Serum atrial natriuretic factor before and after treatment; type: in vivo, mouse; details: before (16 weeks) and after (20 weeks) treatment; compared to DMSO-treated mice
From the text: We measured the expression of atrial-natriuretic factor in the serum Lmna^H222P/H222P mice before (16 weeks) and after (20 weeks) the treatment with the MEK1/2 inhibitors (FIG. 3).

MEK1/2 = details: Table 10, description of MEK1/2 inhibitors; cited from earlier work
Lmna^H222P/H222P mice [5] = type: in vivo, mouse; details: Lmna^H222P/H222P mice at 16 weeks of age; i.p. 5 days a week from 8 to 16 weeks (PD98059, SP600125 3 mg/kg/day); means ± standard deviations
Experimental: PD98059 (Calbiochem) and SP600125 (Calbiochem) were dissolved in Dimethyl Sulfoxide (DMSO, Sigma) at a concentration of 0.5 mg/ml and were delivered to a dose of 3 mg/kg/day for 5 days a week. […] The placebo control consisted of DMSO alone. Placebo and inhibitors were administered by intraperitoneal injection using a 27G^5/8 syringe. Treatment was started when mice were 8 weeks of age and continued until 16 weeks of age.
Lmna H222P knock-in mice were generated and genotyped as described (14). […] Lmna^H222P/H222P mice were separated by sex and were given either vehicle alone (DMSO), the MEK inhibitor PD98059 alone, the JNK inhibitor SP600125 alone, both PD98059 and SP600125 together, the MEK inhibitor U0126 alone, or the MEK inhibitor MEK1/2 alone. All the mice were fed on a chow diet and housed in a barrier facility. The Institutional Animal Care and Use Committee at Columbia University Medical Center approved the use of animals in the study protocol.
Cardiac function was assessed by echocardiography with a Visualsonics Vevo 770 ultrasound with a 30-MHz transducer applied to the chest wall. Cardiac ventricular dimensions and ejection fraction were measured in 2D-mode and M-mode three times for the number of animals indicated. A “blinded” echocardiographer, unaware of the genotype or treatment, performed the examinations.
We administered PD98059, at a dose of 3 mg/kg/day or 6 mg/kg/day, or placebo (dimethylsulfoxide; DMSO) by intraperitoneal injection 5 days a week to male homozygous Lmna mutant mice (Lmna^H222P/H222P). […] PD98059 mediates its inhibitory properties by binding to MEK, therefore preventing phosphorylation of ERK1/2.
Treatment was initiated at 8 weeks of age and continued until the mice were 16 weeks of age. At 16 weeks of age, the mice were analyzed by echocardiography and then sacrificed for histological and biochemical studies. Untreated male Lmna^+/+ and Lmna^H222P/H222P mice were similarly analyzed for comparisons.

[6] = 1 mg/kg/day from 16 to 20 weeks of age

Compound: O=C(NOCC(O)CO)c1ccc(F)c(F)c1Nc1ccc(I)cc1F (centres unmarked) [PD0325901]
- FS (Lmna^H222P/H222P mice [1]): 23.23%±6.33%
- area of fibrotic tissue per total surface examined [2]: 15.06%±0.28%
- phosphorylation of ERK1 and ERK2 in hearts (ERK1/2): inhibited partially
- cardiac expression of brain natriuretic factor (Nppb) [3, 6]: decreased
- decrease of Mlc-1a and Mlc-2a mRNAs compared to hearts of DMSO-treated mice [3, 6]: approximately 2 fold
- expression of Colla1 and Colla2 [3]: significantly lowered
- expression of atrial natriuretic factor in serum [4]: trend toward diminished expression

Compound: O=C(NOCC1CC1)c1ccc(F)c(F)c1Nc1ccc(I)cc1Cl [CI-1040]
- FS improvement (Lmna^H222P/H222P mice [1]): not improved
- LVEDD compared to DMSO-treated mice (Lmna^H222P/H222P mice [1]): significantly smaller
- IC50 (MEK1/2): 1 nM
- area of fibrotic tissue per total surface examined [2]: 13.10%±0.96%
- phosphorylation of ERK1 and ERK2 in hearts (ERK1/2): inhibited partially
- expression of Colla1 and Colla2 [3]: significantly lowered
- expression of atrial natriuretic factor in serum [4]: significantly decreased

Compound: N#CC(=C(N)Sc1ccc(N)cc1)c1ccccc1C(F)(F)F [MEK1/2, Z-& E-a-(amino-((4-aminophenyl)thio)methylene)-2-(trifluoromethyl)benzeneacetonitrile]
- EF (Lmna^H222P/H222P mice [5]): 64.43 ± 0.77%
- FS (Lmna^H222P/H222P mice [5]): 34.50 ± 0.36%
- IVSD (Lmna^H222P/H222P mice [5]): 0.60 ± 0.00 mm
- LVEDD (Lmna^H222P/H222P mice [5]): 3.77 ± 0.32 mm
- LVESD (Lmna^H222P/H222P mice [5]): 2.62 ± 0.28 mm
- LVPW (Lmna^H222P/H222P mice [5]): 0.69 ± 0.08 mm

Compound: Cn1cnc2c(F)c(Nc3ccc(Br)cc3Cl)c(C(=O)NOCCO)cc21 [AZD6244]
- FS (Lmna^H222P/H222P mice [1]): 25.97%±5.05%
- LVEDD compared to DMSO-treated mice (Lmna^H222P/H222P mice [1]): significantly smaller
- LVESD compared to DMSO-treated mice (Lmna^H222P/H222P mice [1]): significantly smaller
- IC50 (MEK1/2): 10 nM
- area of fibrotic tissue per total surface examined [2]: 11.90%±1.97%
- phosphorylation of ERK1 and ERK2 in hearts (ERK1/2): inhibited partially
- decrease of Mlc-1a and Mlc-2a mRNAs compared to hearts of DMSO-treated mice [3, 6]: approximately 2 fold
- expression of Colla1 and Colla2 [3]: significantly lowered
- expression of atrial natriuretic factor in serum [4]: significantly decreased

Compound: N#CC(=C(N)Sc1ccccc1N)C(C#N)=C(N)Sc1ccccc1N [U0126, 1,4-diamino-2,3-dicyano-1,4-bis(2-aminophenylthio)butadiene]
- EF (Lmna^H222P/H222P mice [5]): 62.83 ± 4.09%
- FS (Lmna^H222P/H222P mice [5]): 33.79 ± 3.10%
- IVSD (Lmna^H222P/H222P mice [5]): 0.64 ± 0.03 mm
- LVEDD (Lmna^H222P/H222P mice [5]): 3.54 ± 0.16 mm
- LVESD (Lmna^H222P/H222P mice [5]): 2.47 ± 0.09 mm
- LVPW (Lmna^H222P/H222P mice [5]): 0.69 ± 0.11 mm
